Experimental data published in patent publication US12492169B2, “Aminopyridine compound and application thereof” (priority 2020, dated 2025).
Values after ≈ are worked out from the molar mass of the structure shown. Like-named read-outs stand apart in the source and are kept apart here.

Columns and labels:
[1] = system: Candida glabrata ATCC15126; experiment: Minimum inhibitory concentration (MIC) test against fungi; format: cell-based; details: ≥50% growth inhibition by eye, three independent experiments
Experimental: (§1) To test the minimum inhibitory concentration (MIC) and minimum effective concentration (MEC) of the drug against fungi.
(§2) Experimental strains: Candida parapsilosis ATCC 22019; Candida albicans ATCC MYA-2876; Candida albicans WX-CA009; Candida glabrata ATCC15126; Candida tropicalis ATCC 750;
(§3) Test medium: RPMI1640 (containing 0.165 M MOPS, pH7.0)
(§4) On the day of the experiment, the compound in the bottle was dissolved in 100% DMSO to a stock solution concentration of 6.24 mg/mL. Then, the mixture was 10-fold diluted with DMSO to 0.624 mg/mL for use.
(§5) A 2-fold gradient dilution of the compound solution (0.624 mg/mL) was performed using DMSO on a 96-microwell plate (V-bottom) to obtain 100× working solutions (wells 1 to 11). 624, 312, 156, 78, 39, 20, 10, 5, 2.5, 1.25, 0.625 μg/mL. 100% DMSO was used as a positive control (well 12). This was the compound stock plate.
(§6) Candida parapsilosis ATCC 22019 and Candida albicans ATCC MYA-2876; Candida albicans WX-CA009; Candida glabrata ATCC15126; Candida tropicalis ATCC 750 frozen at −80° C. were streaked on SDA plates and incubated aerobically in a 35±2° C. incubator for 24 hours.
(§7) On the day of the experiment, for strains Candida parapsilosis ATCC 22019, Candida albicans ATCC MYA-2876; Candida albicans WX-CA009; Candida glabrata ATCC15126; Candida tropicalis ATCC 750 and Cryptococcus neoformans H99 ATCC 208821, the plates were taken out and the clones on the plates were picked, suspended in normal saline, and then the turbidity of the fungal suspension was adjusted to OD600=0.2 using a turbidimeter. The fungal suspension contained about 3.0×10^6 CFU/mL. Then the turbidity-adjusted fungal suspension was diluted with a test medium to a concentration of about 3.0×10^3 CFU/mL. This was the inoculum.
(§8) 2 μL of 100× working solution from the compound stock plate (prepared in 3.1) was transferred to a round-bottomed 96-well plate (containing 98 μL of test medium), and then 100 μL of fungus inoculum (prepared in 3.2) was added to each well to obtain a MIC test plate. Therefore, the final test concentrations of the compounds were 6.24, 3.12, 1.56, 0.78, 0.39, 0.20, 0.10, 0.05, 0.025, 0.0125, 0.006 μg/mL. 1% DMSO was used as a growth control.
(§9) For strains Candida parapsilosis ATCC 22019; Candida albicans ATCC MYA-2876; Candida albicans WX-CA009; Candida glabrata ATCC15126; Candida tropicalis ATCC 750, all test plates were incubated aerobically in a 35±2° C. incubator for 24 hours.
(§10) After incubation, according to the criteria in Table 1 below, the test plate was observed by eye or microscope to determine the MIC (g/mL) and MEC (g/mL) of the test compound against yeast and mold.

[2] = system: Candida parapsilosis ATCC 22019; experiment: as above; format: cell-based; details: Lodderomyces parapsilosis, ATCC22019, 24 h, ≥50% growth inhibition by eye, three independent experiments (1st, 2nd, 3rd time), read-out: MIC
Experimental: as §1, §2, §3, §4, §5, §6, §7, §8, §9, §10

[3] = system: Candida albicans WX-CA009; experiment: as above; format: cell-based; details: Candida albicans, WXCA009, 24 h, ≥50% growth inhibition by eye, three independent experiments, read-out: MIC
Experimental: as §1, §2, §3, §4, §5, §6, §7, §8, §9, §10

[4] = Pharmacokinetic evaluation in dogs (IV, PO); format: in vivo, beagle dogs; details: beagle, plasma, Dog
From the text: Experimental Purpose: To evaluate the druggability of the compounds by measuring its pharmacokinetic properties in different animal species.
Experimental materials: CD-1 mice, Sprague-Dawley strain rats, beagle dogs, and crab-eating macaques.
Drug preparation: An appropriate amount of sample was weighed and then prepared into a clear or suspended solution.
Experimental procedure: The animal pharmacokinetic characteristics after intravenous injection and oral administration of the compound were tested using a standard protocol. The candidate compound was prepared as a clear solution (for intravenous injection) or a homogeneous suspension (for oral administration) during the experiment and administered to the animals as a single dose. Whole blood samples were collected at 0.083, 0.25, 0.5, 1, 2, 4, 8, and 24 hours, centrifuged at 3200 g for 10 minutes to separate the supernatant to obtain plasma samples. The plasma concentration was quantitatively analyzed by LC-MS/MS analysis method and pharmacokinetic parameters were calculated, such as peak concentration, peak time, clearance rate, half-life, area under the drug-time curve, etc.

[5] = system: Candida albicans ATCC MYA-2876; experiment: Mouse candidemia efficacy model; format: in vivo; details: female CD-1 mice infected with Candida albicans ATCC MYA-2876
Experimental: Experimental animals: female CD-1 mice, 7 weeks old, 27 to 29 g, n=5 or 8;
microbial pathogen: Candida albicans ATCC MYA-2876;
inoculation level and route: 2.0 to 4.0E+05 CFU/mouse, infected by tail vein injection;
treatment: The treatment started at 1 hour after infection. Firstly, ABT was administered orally, and 2 hours later, the test compound was injected intraperitoneally once a day for 7 days in total, with an administration volume of 10 mL/kg.
Observation indicators: Changes in body weight and mortality within 7 days after infection in each group of mice.

[6] = Mouse pharmacokinetic evaluation, intraperitoneal injection after oral ABT; format: in vivo; details: ip, female CD-1 mice, 26 mpk, ABT 50 mg/kg orally 2 hours before, plasma
From the text: Experimental Purpose: Using female CD-1 mice as test animals, LC/MS/MS was used to measure the plasma drug concentration at different times after intraperitoneal injection of the test compound. To study the pharmacokinetic behavior of the test compound in mice and evaluate its pharmacokinetic characteristics. Drug preparation: An appropriate amount of sample was weighed and then prepared into a clear or suspended solution. Administration scheme: Two healthy female CD-1 mice were taken, purchased from Beijing Vital River Laboratory Animal Technology Co., Ltd., and given a normal diet. The drug was administered through intraperitoneal injection. Operational steps: 2 hours before administration, 1-aminobenzotriazole (ABT) was orally administered (50 mg/kg, 5 mg/mL in normal saline), and after animal administration, about 30 μL of blood was collected at 0.083, 0.25, 0.5, 1, 2, 4, 8, and 24 hours, and placed in commercially available anticoagulant tubes pre-added with EDTA-K2. The tubes were centrifuged for 10 minutes to separate the plasma, and the plasma was stored at −60° C. The content of the target compound in the plasma sample was determined by LC/MS/MS method, and the experimental results are shown in Table 3.

In the case of `Nc1ccc(C#CCc2ccc(COc3ccccn3)cc2)cn1` [WX004], the MIC ([1]; Nakaseomyces glabratus, ATCC15126, 24 h, read-out: MIC) is reported as 0.39 µg/mL (≈ 1.24 µM), the MIC ([1]; 24 hours) is reported as 0.78 µg/mL (≈ 2.47 µM) and the MIC [2] is reported as 0.05 µg/mL (≈ 0.159 µM). The MIC [3] was 0.025 µg/mL (≈ 0.0793 µM), the AUC ([4]; 1 mg/kg, IV, 1 mpk) was 2.8 µM·h and the Vd ([4]; 1 mg/kg, IV, 1 mpk) was 2.8 L/kg. The clearance ([4]; 1 mg/kg, IV, 1 mpk) was 21 mL/min/kg, the half-life ([4]; 1 mg/kg, IV, 1 mpk) was 2.5 h and the AUC ([4]; 10 mg/kg, PO, 10 mpk) was 14 µM·h. It also gave a Cmax ([4]; 10 mg/kg, PO, 10 mpk) of 6.5 µM, a Tmax ([4]; 10 mg/kg, PO, 10 mpk) of 0.75 h and a bioavailability ([4]; 10 mg/kg, PO, 10 mpk) of 51%. The “protection from death caused by candidemia” value ([5]; 26 mg/kg intraperitoneally once a day for 7 days after 50 mg/kg ABT orally, n=5) was “completely protect”, the survival rate ([5]; 6 mpk intraperitoneally once a day for 7 days after ABT orally, n=8) was 100% and the AUC ([6]; read-out: Concentration Integral AUC) was 305 µM·h. The Cmax ([6]; read-out: Peak Concentration Cmax) was 19 µM and the Tmax ([6]; read-out: Peak Time Tmax) was 1 h.
